The nature of data set [1]: in vitro. Particulars: PAMPA. Background: In PAMPA a lipid-coated filter parts donor from acceptor wells.
The conditions of data set [2]: in vivo, po; cited from earlier work.
[3] abbreviates: pH 5, permeability class PAMPA-GIT.

As a reminder, the Papp is a coefficient for how fast a substance crosses the barrier.

Some results are limits rather than exact numbers.

Regarding `Cc1cc(=O)n(-c2ccccc2)n1C` [Antipyrine], in data set [1] (setting [3]), the apparent permeability coefficient (Papp) is below 1 ×10⁻⁶ cm/s.

`CC(C)(C)[C@H](NC(=O)C(F)(F)F)C(=O)N1C[C@H]2[C@@H]([C@H]1C(=O)N[C@H](C#N)C[C@@H]1CCNC1=O)C2(C)C` [nirmatrelvir]: the half-life in data set [2] is on record as ~ 2 h.

With `NC(=O)N1c2ccccc2C=Cc2ccccc21` [Carbamazepine], the Papp is 135 ×10⁻⁶ cm/s in data set [1] (pH 5, Papp PAMPA-GIT, pH 5.0); above 20 ×10⁻⁶ cm/s in data set [1] (setting [3]); 158 ×10⁻⁶ cm/s in data set [1] (pH 6.2, Papp PAMPA-GIT, pH 6.2); 160 ×10⁻⁶ cm/s in data set [1] (pH 7.4, Papp PAMPA-GIT, pH 7.4).

Values taken from publication PMC9453727 (Cell Discovery, 2022).
